From patent publication US10865216B2, “Tricyclic Gyrase inhibitors” (MERCK SHARP & DOHME CORP., priority 2012, dated 2020)
Converted amounts (≈) assume the structure as drawn.

Experiments:
[1] = test system: S. aureus ATCC 13709; assay: MIC, S. aureus ATCC 13709; type: cell-based; conditions: Alamar Blue read after overnight incubation at 35° C.; for MIC Sa: S. aureus; for MIC: Staphylococcus aureus, ATCC13709, S. aureus, read-out: MIC Sa
[2] = test system: E. coli ATCC 25922; assay: MIC, E. coli ATCC 25922; type: cell-based; conditions: Alamar Blue read after overnight incubation at 35° C.; for MIC Ec: E. coli; for MIC: Escherichia coli, ATCC25922, E. coli, read-out: MIC Ec

Row | Structure (SMILES) | MIC Sa [1] | MIC Ec [2] | MIC [1] | MIC [2]
1 | CNc1cc(F)cc2c1[nH]c1nc(Oc3ccc4sc(C)nc4c3)nc(N3CC4CCC(N)C4C3)c12 (centres unmarked) [Compound 4.322] | ≤0.5 µg/mL | ≤0.5 µg/mL | – | –
2 | CNc1cc(F)cc2c1[nH]c1nc(Oc3cnc(C#N)c(C)c3)nc(N3CC4CC(N)C4C3)c12 (centres unmarked) [Compound 4.323] | ≤0.5 µg/mL | 1 µg/mL (≈ 2.18 µM) | – | –
3 | CNc1cc(F)cc2c1[nH]c1nc(Oc3cnc(C#N)c(C)c3)nc(N3CC(N)C4(CC4)C3)c12 (centres unmarked) [Compound 4.324] | ≤0.5 µg/mL | ≤0.5 µg/mL | – | –
4 | CNc1cc(F)cc2c1[nH]c1nc(Oc3cnc(C#N)c(C)c3)nc(N3CC4CC(N)C4C3)c12 (centres unmarked) [Compound 4.325] | ≤0.5 µg/mL | ≤0.5 µg/mL | – | –
5 | CNc1cc(F)cc2c1[nH]c1nc(Oc3cnc(C#N)c(C)c3)nc(N3CC4(CCC4N)C3)c12 (centres unmarked) [Compound 4.326] | ≤0.5 µg/mL | ≤0.5 µg/mL | – | –
6 | CNc1cc(F)cc2c1[nH]c1nc(Oc3cnc4c(ccn4C)c3)nc(N3CC4CC(N)C4C3)c12 (centres unmarked) [Compound 4.328] | ≤0.5 µg/mL | 1 µg/mL (≈ 2.12 µM) | – | –
7 | CNc1cc(F)cc2c1[nH]c1nc(Oc3ccc(C#N)nc3)nc(N3CC(N)C4(CC4)C3)c12 (centres unmarked) [Compound 4.329] | ≤0.5 µg/mL | ≤0.5 µg/mL | – | –
8 | CNc1cc(F)cc2c1[nH]c1nc(Oc3ccc(C#N)nc3)nc(N3CC4CCNC4C3)c12 (centres unmarked) [Compound 4.330] | ≤0.5 µg/mL | ≤0.5 µg/mL | – | –
9 | CNc1cc(F)cc2c1[nH]c1nc(Oc3ccc(C#N)nc3)nc(N3CCC(N)C3)c12 (centres unmarked) [Compound 4.331] | ≤0.5 µg/mL | ≤0.5 µg/mL | – | –
10 | CNc1cc(F)cc2c1[nH]c1nc(Oc3ccc(C#N)nc3)nc(N3CC4CC(N)C4C3)c12 (centres unmarked) [Compound 4.332] | ≤0.5 µg/mL | ≤0.5 µg/mL | – | –
11 | CNc1cc(F)cc2c1[nH]c1nc(Oc3ccc(C#N)nc3)nc(N3CC4(CCC4N)C3)c12 (centres unmarked) [Compound 4.333] | ≤0.5 µg/mL | ≤0.5 µg/mL | – | –
12 | CNc1cc(F)cc2c1[nH]c1nc(Oc3ccc4sc(N)nc4c3)nc(N3CC4CCC(N)C4C3)c12 (centres unmarked) [Compound 4.335] | ≤0.5 µg/mL | 4 µg/mL (≈ 7.93 µM) | – | –
13 | CNc1cc(F)cc2c1[nH]c1nc(Oc3ccc4oc(C)nc4c3)nc(N3CC4CCC(N)C4C3)c12 (centres unmarked) [Compound 4.336] | ≤0.5 µg/mL | 1 µg/mL (≈ 2.05 µM) | – | –
14 | CNc1cc(F)cc2c1[nH]c1nc(Oc3cnc4ccc[n+]([O-])c4c3)nc(N3CC4(CCC4N)C3)c12 (centres unmarked) [Compound 4.342] | ≤0.5 µg/mL | 4 µg/mL (≈ 8.22 µM) | – | –
15 | CNc1cc(F)cc2c1[nH]c1nc(Oc3cnc(N4CCCC4=O)nc3)nc(N3CC4C(N)C4C3)c12 (centres unmarked) [Compound 4.345] | ≤0.5 µg/mL | 2 µg/mL (≈ 4.09 µM) | – | –
16 | CNc1cc(F)cc2c1[nH]c1nc(Oc3cncc([S+](C)[O-])c3)nc(N3CC4C(N)C4C3)c12 (centres unmarked) [Compound 4.351] | ≤0.5 µg/mL | 2 µg/mL (≈ 4.28 µM) | – | –
17 | CNc1cc(F)cc2c1[nH]c1nc(Oc3cnc(CC(=O)N4CC[C@H](N)C4)nc3)nc(N3C[C@H](N)C4(CC4)C3)c12 [Compound 4.372] | 4 µg/mL (≈ 7.32 µM) | 16 µg/mL (≈ 29.3 µM) | – | –
18 | CNc1cc(F)cc2c1[nH]c1nc(Oc3cnc(CC(=O)N4CC(N(C)C)C4)nc3)nc(N3C[C@H](N)C4(CC4)C3)c12 [Compound 4.373] | 2 µg/mL (≈ 3.57 µM) | 8 µg/mL (≈ 14.3 µM) | – | –

Row | Structure (SMILES) | MIC Sa [1] | MIC Ec [2] | MIC [1] | MIC [2]
19 | CNc1cc(F)cc2c1[nH]c1nc(Oc3cnc(C(N)=O)nc3)nc(N3C[C@H](N)C4(CC4)C3)c12 [Compound 4.375] | ≤0.5 µg/mL | 4 µg/mL (≈ 8.63 µM) | – | –
20 | CCNC(=O)c1cncc(Oc2nc(NCC)c3c(n2)[nH]c2c(NC)cc(F)cc23)c1 [Compound 4.384] | 1 µg/mL (≈ 2.36 µM) | >16 µg/mL | – | –
21 | CNc1cc(F)cc2c1[nH]c1nc(Oc3cnc(-c4nccn4C)nc3)nc(N3C[C@H](N)C4(CC4)C3)c12 [Compound 4.399] | ≤0.5 µg/mL | 2 µg/mL (≈ 4 µM) | – | –
22 | CCOC(=O)c1ncc(Oc2nc(N3C[C@H](N)C4(CC4)C3)c3c(n2)[nH]c2c(NC)cc(F)cc23)cn1 [Compound 4.402] | ≤0.5 µg/mL | ≤0.5 µg/mL | – | –
23 | CNc1cc(F)cc2c1[nH]c1nc(Oc3cnc(NCC4CCCO4)nc3)nc(N3C[C@H](N)C4(CC4)C3)c12 (some centres unmarked) [Compound 4.406] | ≤0.5 µg/mL | 1 µg/mL (≈ 1.92 µM) | – | –
24 | CNc1cc(F)cc2c1[nH]c1nc(Oc3cnc(NCC(O)CO)nc3)nc(N3C[C@H](N)C4(CC4)C3)c12 (some centres unmarked) [Compound 4.407] | 2 µg/mL (≈ 3.93 µM) | >16 µg/mL | – | –
25 | CNc1cc(F)cc2c1[nH]c1nc(Oc3cnc(C)nc3)nc(-c3cncc(F)c3)c12 [Compound 4.417] | ≤0.5 µg/mL | 1 µg/mL (≈ 2.38 µM) | – | –
26 | CNc1cc(F)cc2c1[nH]c1nc(Oc3cnc(C)nc3)nc(-c3cn[nH]c3)c12 [Compound 4.418] | ≤0.5 µg/mL | 1 µg/mL (≈ 2.56 µM) | – | –
27 | Cc1ncc(Oc2nc(N3C[C@H](N)C4(CC4)C3)c3c(n2)[nH]c2c(N(C)C(=O)[C@H](C)N)cc(F)cc23)cn1 [Compound 4.423] | – | – | > 16 µg/mL | > 16 µg/mL
28 | Cc1ncc(Oc2nc(N3C[C@H](N)C4(CC4)C3)c3c(n2)[nH]c2c(N(C)C(=O)[C@H](C)NC(=O)[C@H](C)N)cc(F)cc23)cn1 [Compound 4.425] | – | – | > 16 µg/mL | > 16 µg/mL
29 | Cc1ncc(Oc2nc(N3C[C@H](N)C4(CC4)C3)c3c(n2)[nH]c2c(N(C)C(=O)CN)cc(F)cc23)cn1 [Compound 4.426] | – | – | 8 µg/mL (≈ 16.3 µM) | > 16 µg/mL
30 | Cc1ncc(Oc2nc(N3C[C@H](NC(=O)CN)C4(CC4)C3)c3c(n2)[nH]c2c(N(C)C(=O)CN)cc(F)cc23)cn1 [Compound 4.427] | – | – | > 16 µg/mL | > 16 µg/mL
31 | CNc1cc(F)cc2c1[nH]c1nc(Oc3cnc(CCO)nc3)nc(N3CC4CC3C[C@@H]4N)c12 (some centres unmarked) [Compound 4.428] | – | – | ≤ 0.5 µg/mL | 2 µg/mL (≈ 4.31 µM)
32 | CNc1cc(F)cc2c1[nH]c1nc(Oc3cnc(CCO)nc3)nc(N3CC4C[C@@H](N)C4C3)c12 (some centres unmarked) [Compound 4.429] | – | – | ≤ 0.5 µg/mL | 1 µg/mL (≈ 2.15 µM)
33 | CNc1cc(F)cc2c1[nH]c1nc(Oc3cnc(C(C)O)nc3)nc(N3CC4(CC[C@H]4N)C3)c12 (some centres unmarked) [Compound 4.430] | – | – | ≤ 0.5 µg/mL | ≤ 0.5 µg/mL
34 | CNc1cc(F)cc2c1[nH]c1nc(Oc3cnc(C(C)(C)O)nc3)nc(N3CC4(CC[C@H]4N)C3)c12 [Compound 4.431] | – | – | ≤ 0.5 µg/mL | ≤ 0.5 µg/mL
35 | CNc1cc(F)cc2c1[nH]c1nc(Oc3cnc(C)nc3)nc(-c3ccc(Cl)c(N)c3)c12 [Compound 4.432] | – | – | ≤ 0.5 µg/mL | > 16 µg/mL

Now from value to molecule:

Row | MIC Sa [1] | MIC Ec [2] | MIC [1] | MIC [2] | Structure (SMILES)
36 | – | – | ≤ 0.5 µg/mL | ≤ 0.5 µg/mL | CNc1cc(F)cc2c1[nH]c1nc(Oc3cnc(OC)nc3)nc(N3C[C@H](N)C4(CC4)C3)c12 [Compound 4.433]
37 | – | – | ≤ 0.5 µg/mL | ≤ 0.5 µg/mL | CNc1cc(F)cc2c1[nH]c1nc(Oc3cnc(C#N)c(C)c3)nc(N3CC4CC3C[C@@H]4N)c12 (some centres unmarked) [Compound 4.435]
38 | – | – | ≤ 0.5 µg/mL | > 16 µg/mL | CNc1cc(F)cc2c1[nH]c1nc(Oc3cnc(C)nc3)nc(N3CC(N)C(C(F)(F)F)C3)c12 (centres unmarked) [Compound 4.436]
39 | – | – | ≤ 0.5 µg/mL | 1 µg/mL (≈ 2.14 µM) | CNc1cc(F)cc2c1[nH]c1nc(Oc3cnc(C)nc3)nc(N3CC(N)C(C(=O)OC)C3)c12 (centres unmarked) [Compound 4.437]
40 | – | – | 1 µg/mL (≈ 1.92 µM) | 16 µg/mL (≈ 30.7 µM) | CNc1cc(F)cc2c1[nH]c1nc(Oc3cnc(C)nc3)nc(N3CC(N)C(C(=O)N4CCOCC4)C3)c12 (centres unmarked) [Compound 4.438]
41 | – | – | 8 µg/mL (≈ 15.7 µM) | > 16 µg/mL | CNc1cc(F)cc2c1[nH]c1nc(Oc3cnc(C)nc3)nc(N3CC(N)C(C(=O)NCC(C)O)C3)c12 (centres unmarked) [Compound 4.439]
42 | – | – | 16 µg/mL (≈ 28.3 µM) | > 16 µg/mL | CNc1cc(F)cc2c1[nH]c1nc(Oc3cnc(C)nc3)nc(N3CC(N)C(C(=O)NCCN4CCOCC4)C3)c12 (centres unmarked) [Compound 4.440]
43 | – | – | ≤ 0.5 µg/mL | ≤ 0.5 µg/mL | CNc1cc(F)cc2c1[nH]c1nc(Oc3cnc(C(C)(C)C)nc3)nc(N3CC4CC3C[C@H]4N)c12 (some centres unmarked) [Compound 4.441]
44 | – | – | 1 µg/mL (≈ 2.09 µM) | 2 µg/mL (≈ 4.19 µM) | CNc1cc(F)cc2c1[nH]c1nc(Oc3cnc(C(C)(C)N)nc3)nc(N3C[C@H]4CC3C[C@H]4N)c12 [Compound 4.442]
45 | – | – | ≤ 0.5 µg/mL | ≤ 0.5 µg/mL | CNc1cc(F)cc2c1[nH]c1nc(Oc3cnc(CF)nc3)nc(N3C[C@H]4CC3C[C@H]4N)c12 [Compound 4.443]
46 | – | – | 2 µg/mL (≈ 4.47 µM) | > 16 µg/mL | CNc1cc(F)cc2c1[nH]c1nc(Oc3cnc(C)nc3)nc(-c3ccc(F)cc3CN)c12 [Compound 4.445]
47 | – | – | 2 µg/mL (≈ 4.47 µM) | 8 µg/mL (≈ 17.9 µM) | CNc1cc(F)cc2c1[nH]c1nc(Oc3cnc(C)nc3)nc(-c3cc(CN)ccc3F)c12 [Compound 4.446]
48 | – | – | 4 µg/mL (≈ 8.94 µM) | 16 µg/mL (≈ 35.8 µM) | CNc1cc(F)cc2c1[nH]c1nc(Oc3cnc(C)nc3)nc(-c3cccc(CN)c3F)c12 [Compound 4.447]
49 | – | – | ≤ 0.5 µg/mL | 1 µg/mL (≈ 2.4 µM) | CNc1cc(F)cc2c1[nH]c1nc(Oc3cnc(C)nc3)nc(-c3cccnc3N)c12 [Compound 4.448]
50 | – | – | ≤ 0.5 µg/mL | > 16 µg/mL | CNc1cc(F)cc2c1[nH]c1nc(Oc3cnc(C)nc3)nc(-c3cncnc3)c12 [Compound 4.449]
51 | – | – | ≤ 0.5 µg/mL | 2 µg/mL (≈ 4.8 µM) | CNc1cc(F)cc2c1[nH]c1nc(Oc3cnc(C)nc3)nc(-c3cncc(N)c3)c12 [Compound 4.450]
52 | ≤0.5 µg/mL | ≤0.5 µg/mL | – | – | CNc1cc(F)c(F)c2c1[nH]c1nc(Oc3ncc(C)cn3)nc(N3CC4C(N)C4C3)c12 (centres unmarked) [Compound 5.04]
53 | ≤0.5 µg/mL | ≤0.5 µg/mL | – | – | CNc1cc(F)c(F)c2c1[nH]c1nc(Oc3ncc(C)cn3)nc(N3CC(N)C3)c12 [Compound 5.06]
54 | – | – | ≤ 0.5 µg/mL | ≤ 0.5 µg/mL | CNc1cc(F)c(F)c2c1[nH]c1nc(Oc3cnc(CO)nc3)nc(N3C[C@H]4C[C@@H]3C[C@H]4N)c12 [Compound 5.14]
55 | – | – | ≤ 0.5 µg/mL | 1 µg/mL (≈ 1.93 µM) | CNc1cc(F)c(F)c2c1[nH]c1nc(Oc3cnc4c(c3)ncn4C3CC3)nc(N3C[C@H]4C[C@@H]3C[C@H]4N)c12 [Compound 5.15]
